Data published in article PMC4457932, “Characterization of Spirometra erinaceieuropaei Plerocercoid Cysteine Protease and Potential Application for Serodiagnosis of Sparganosis” (PLoS Neglected Tropical Diseases, 2015).
Residues, ends and D or L forms follow the SMILES beside them. *: point of attachment. AMC = Cc1cc(=O)oc2cc(N*)ccc12; Cbz = O=C(OCc1ccccc1)*

Experiments:
rSeCP [1] = target: T1, rSeCP (Spirometra erinaceieuropaei, UniProt O02586); assay: fluorogenic peptidase assay, Z-Phe-Arg-AMC; type: biochemical
T1 construct: MBP fusion (pMAL-c2X, E. coli TB1), 19-residue signal peptide omitted, proform 36 kDa plus MBP 43 kDa, 79 kDa, tag kept; full-length ORF 336 residues
Description: fluorogenic peptidase assay, Z-Phe-Arg-AMC on rSeCP

rSeCP [2] = target: T1, rSeCP; assay: AMC fluorescence, […] nm; type: biochemical; conditions: 3 μM substrate, 100 mM sodium acetate, 5 mM DTT, pH 5.5, 37°C

T1 sequence (O02586 entry or part of it): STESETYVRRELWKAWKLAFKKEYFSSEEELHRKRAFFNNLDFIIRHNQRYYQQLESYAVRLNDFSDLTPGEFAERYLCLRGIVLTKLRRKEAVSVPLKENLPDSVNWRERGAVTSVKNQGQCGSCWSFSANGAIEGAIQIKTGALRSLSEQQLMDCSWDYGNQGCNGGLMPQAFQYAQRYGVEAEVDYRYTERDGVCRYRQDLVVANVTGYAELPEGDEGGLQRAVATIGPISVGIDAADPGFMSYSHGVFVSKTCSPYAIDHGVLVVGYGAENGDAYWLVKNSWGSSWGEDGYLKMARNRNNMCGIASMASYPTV

SMILES | activity at 5 µM (rSeCP [1]) [%] | AMC fluorescence, 355/460 nm (rSeCP [2])
CC(C)C[C@H](NC(=O)[C@H]1O[C@@H]1C(=O)O)C(=O)NCCCCN=C(N)N [E-64, L-trans-epoxysuccinyl-leucylamide (4-guanidino) butane] | 0.8 | 
Cc1cc(=O)oc2cc(NC(=O)[C@H](CCCNC(=N)N)NC(=O)[C@H](Cc3ccccc3)NC(=O)OCc3ccccc3)ccc12 [Z-Phe-Arg-AMC, Z-carbobenzoxy-L-phenylalanyl-L-arginine-(7-amino-4-methylcoumarin)] (Cbz-Phe-Arg-{AMC}) |  | determined by cleavage of the fluorescent substrate Z-carbobenzoxy-L-phenylalanyl-L-arginine-(7-amino-4-methylcoumarin) (Z-Phe-Arg-AMC, Sigma)
